Patent publication EP0393530B1, “5,11-dihydro-6H-pyrido[2,3,-b][1,4]benzodiazepin-6-ones and -thiones and their use in the prevention or treatment of AIDS” (BOEHRINGER INGELHEIM PHARMACEUTICALS INC., priority 1989, dated 1990)

Assays:
[1] = biological target: T1, HIV-1 reverse transcriptase (Human immunodeficiency virus type 1 group M subtype B, UniProt P03367); assay: Reverse Transcriptase (RT) Assay; type: biochemical; settings: RNA-dependent DNA polymerase activity
T1 construct: Reverse transcriptase enzyme from the LAV strain of Human Immunodeficiency Virus (HIV-1); made in house; host or cells: E. coli JM109, clone pBRTprt1+ in vector pIBI21 (lac promoter, IPTG induction)
Text: Utilizing the Reverse Transcriptase (RT) Assay described below, compounds can be tested for their ability to inhibit the RNA-dependent DNA polymerase activity of HIV RT. Certain specific compounds, described in the Examples which appear below, were so tested.
Among the enzymes for which Human Immunodeficiency Virus (HIV-1) encodes is a reverse transcriptase (1), so-named because it transcribes a DNA copy from an RNA template. This activity can be quantitatively measured in a cell-free enzyme assay which has been previously described (2), and is based upon the observation that reverse transcriptase is able to use a synthetic template [poly r(C) primed with oligo d(G)] to transcribe a radio-labelled, acid-precipitable DNA strand utilizing ³H-dGTP as a substrate.
a) Preparation of the enzyme Reverse transcriptase enzyme from the LAV strain of Human Immunodeficiency Virus (HIV-1) (1) was isolated from the bacterial strain JM109 (3) expressing the DNA clone pBRTprt1+ (2) which is under the control of the lac promotor in the expression vector pIBI21 (4). An overnight culture grown in 2XYT medium (37°C, 225 rpm) (5) supplemented with 100 µg/ml ampicillin for positive selection is inoculated at a 1:40 dilution into M9 medium supplemented with 10µg/ml thiamine, 0.5% casamino acids, and 50 µg/ml ampicillin (5). The culture is incubated (37°C, 225 rpm) until it reaches an OD540 of 0.3-0.4. At that time the repressor inhibitor IPTG (isopropyl b-D-thiogalactopyranoside) is added to 0.5mM and incubated for 2 additional hours. Bacteria are pelleted, resuspended in a 50mM Tris, 0.6mM EDTA, 0.375M NaCl buffer and digested by the addition of lysozyme (1mg/ml) for 30 minutes on ice. The cells are lysed by the addition to 0.2% NP-40 and brought to 1M NaCl. After removal of the insoluble debris by centrifugation, the protein is precipitated by the addition of 3 volumes of saturated aqueous ammonium sulfate. The enzyme is pelleted, resuspended in RT buffer (50mM Tris pH 7.5, 1mM EDTA, 5mM DTT, 0.1% NP-40, 0.1M NaCl, and 50% glycerol) and stored at -70°C for further use. b) Composition of 2X concentrated stock reaction mixture
The 2X concentrated stock reaction mixture is aliquoted and stored at -20°C. The mixture is stable and thawed for use in each assay. This enzyme assay has been adapted to a 96 well microtiter plate system, and has been previously described (6). Tris buffer (50 mM, pH 7.4), vehicle (solvent diluted to match the compound dilution), or compounds in vehicle are dispensed into 96-well miciotiter plates (10µl/well; 3 wells/compound). The HIV RT enzyme is thawed, diluted in 50mM Tris pH 7.4 so that fifteen µl of diluted enzyme contain 0.001 Unit (one unit is that amount of enzyme to transform 1 micromole of substrate per minute at 25°C), and 15µl are dispensed per well. Twenty µl of 0.12-0.5M EDTA are added to the first three wells of the microtiter plate. EDTA chelates the Mg⁺⁺ present and prevents reverse transcription. This group serves as background polymerization which is subtracted from all other groups. Twenty-five µl of the 2X reaction mixture are added to all wells and the assay is allowed to incubate at room temperature for 60 minutes. The assay is terminated by precipitating the DNA in each well with 50µl of trichloracetic acid (TCA) (10% w/v) in sodium pyrophosphate (1% w/v). The microtiter plate is incubated for 15 minutes at 4°C and the precipitate is fixed onto #30 glass fiber paper (Schleicher & Schuell) using a Skatron semi-automatic harvester. The filters are then washed with additional TCA (5%) containing sodium pyrophosphate (1%), rinsed with aqueous ethanol (70%), dried, and transferred to scintillation vials (6). Each vial receives 2 mls of scintillation cocktail and is counted in a Beckman beta counter.
The calculation for percent inhibition is as follows: [formula]

[2] = MTT Assay for Cellular Cytotoxicity; type: cell-based; settings: human, H9 cells, five days, EC₅₀ called the highest non-toxic concentration, read-out: Cytotoxity Assay (EC₅₀)
Description: In order to roughly assess the cytotoxicity of the compounds provided by the invention, several such compounds were tested in the MTT Cellular Cytotoxicity Assay described below. Compounds having a relatively high EC₅₀ are preferred.
The MTT [3-(4,5-dimethylthiazol-2-yl)-2,5-diphenyl tetrazolium bromide) assay is based on cleavage of tetrazolium bromide by metabolically active cells, resulting in a highly quantitative blue color. This assay has been previously described (1) but his been optimized for the purposes of the testing reported herein.
The H9 cell line (2), an established human lymphoma suspension cell line grown in RPMI 1640 supplemented with 10% fetal bovine serum is used as the target cell line in the assay. Cells (100µl) are plated in microtest plate wells at a concentration of 10⁵ cells per ml in the presence of varying concentrations of inhibitor. The cells are incubated at 37°C in a humidified CO₂ incubator. Five days later, 20µl of MTT (5mg/ml in RPMI 1640, sonicated, 0.2 micron filtered, and stored at 4°C) is added to each well. After 4 hours additional incubation at 37°C, 60µl of Triton-X is added to each well and thoroughly mixed to aid the solubilization of the crystals. Absolute ethanol (5µl) is added to each well and the resulting mixture is incubated for 30 minutes at 60°C and immediately read on a plate reader (Dynatech) at a wavelength of 570nm. […]

[3] = tested on: HTLV-IIIB strain of HIV-1; assay: Human T-Cell Culture Assay (syncytia formation in c8166 cells); type: cell-based; settings: Human immunodeficiency virus 1, IIIB, 96 h, syncytia four days after virus challenge
Description: In order to confirm that compounds which are active in the RT Assay also have the ability to inhibit HIV replication in a living system, compounds according to the invention were also tested in the Human T-Cell Culture Assay described below.
Assay Theory: Formation of syncytia is a feature of in vitro cultures of CD4+ T-cells infected with HIV-1. In this assay, T-cells are treated with a putative replication inhibiting compound and then infected with HIV-1. After incubation the culture is checked for the formation of syncytia. The absence or reduction is the number of syncytia is used as a measure of the test compound's ability to inhibit HIV replication.
Assay Method: The target cells, designated c8166, are a subclone of human lymphoma cells of T-cell origin and are established at an initial density of 5x10⁴ per 100 µl in RPMI 1640 (+ 10% fetal bovine serum) culture medium in 96 well flat bottom plates. A selected amount of test compound, dissolved in DMSO is included. After 24 hours, 50-100 TCID50's (the dose that results in induced effect in 50% of test cultures) of the HTLV-IIIB strain of HIV-1 (2) are innoculated into each culture. Control cultures receive compound or virus only. […] The percent inhibition by the test compound is determined by comparison with control values. […]

inhibition at 10 µg/mL [1] [%] | Compound | also measured
82 | CCN1c2ccccc2C(=O)Nc2cccnc21 [Example 9b, 11-Ethyl-5,11-dihydro-6H-pyrido[2,3-b][1,4]benzodiazepin-6-one] | 
55 | O=C1Nc2cccnc2Nc2ccccc21 [Example 9c, 5,11-dihydro-6H-pyrido[2,3-b][1,4]benzodiazepin-6-one] | 
24 | CCN1C(=O)c2ccccc2N(C)c2ncccc21 [Example 9d, 5-Ethyl-11-methyl-5,11-dihydro-6H-pyrido[2,3-b][1,4]benzodiazepin-6-one] | 
38 | CCCN1C(=O)c2ccccc2N(C)c2ncccc21 [Example 9e, 5-n-Propyl-11-methyl-5,11-dihydro-6H-pyrido[2,3-b][1,4]benzodiazepin-6-one] | 
94 | CCN1c2ccccc2C(=O)N(C)c2cccnc21 [Example 9f, 5-Methyl-11-ethyl-5,11-dihydro-6H-pyrido[2,3-b][1,4]benzodiazepin-6-one] | 
87 | CCN1C(=O)c2ccccc2N(CC)c2ncccc21 [Example 9g, 5,11-Diethyl-5,11-dihydro-6H-pyrido[2,3-b][1,4]benzodiazepin-6-one] | CC50 at 120 h [2]: 100 µM; inhibition at 75 µM ([3]; @75µM): 100%
70 | C=CCN1C(=O)c2ccccc2N(CC)c2ncccc21 [Example 9h, 5-(2-Propenyl)-11-ethyl-5,11-dihydro-6H-pyrido[2,3-b][1,4]benzodiazepin-6-one] | 

The next lines start with the molecule.

Compound | inhibition at 10 µg/mL [1] [%] | also measured
C=C(Cl)CN1C(=O)c2ccccc2N(CC)c2ncccc21 [Example 1, 5-(2-Chloro-2-propenyl)-11-ethyl-5,11-dihydro-6H-pyrido [2,3-b][1,4]benzodiazepin-6-one] | 41 | 
Cc1ccc2c(c1)C(=O)N(C)c1ccc(C)nc1N2C [Example 2, 2,5,8,11-Tetramethyl-5,11-dihydro-6H-pyrido[2,3-b][1,4]benzodiazepin-6-one] | 50 | 
CCN1C(=O)c2cccc(C)c2N(CC)c2ncccc21 [Example 3, 5,11-Diethyl-10-methyl-5,11-dihydro-6H-pyrido[2,3-b][1,4]benzodiazepin-6-one] | 87 | 
CCN1c2ccc(C)cc2C(=O)N(C)c2cccnc21 [Example 4, 5,8-Dimethy-11-ethyl-5,11-dihydro-6H-pyrido[2,3-b][1,4]benzodiazepin-6-one] | 91 | CC50 at 120 h [2]: 40 µM; inhibition at 19 µM ([3]; @19µM): 100%
Cc1ccc2c(n1)N(C)c1c(C)cccc1C(=O)N2C [Example 5, 2,5,10,11-Tetramethyl-5,11-dihydro-6H-pyrido[2,3-b][1,4]benzodiazepin-6-one] | 84 | 
CC(C)(C)OC(=O)CN1c2ccccc2C(=O)Nc2cccnc21 [Example 6] | 86 | 
CCN1C(=O)c2ccccc2N(C)c2nc(Cl)ccc21 [Example 7, 2-Chloro-5-ethyl-11-methyl-5,11-dihydro-6H-pyrido[2,3-b] [1,4]benzodiazepin-6-one] | 43 | 
Cc1ccc2c(c1)C(=O)N(C)c1cccnc1N2C [Example 8, 5,8,11-Trimethyl-5,11-dihydro-6H-pyrido[2,3-b][1,4]benzodiazepin-6-one] | 40 | 
CN1c2ccccc2C(=O)Nc2cccnc21 [Example 9a, 11-Methyl-5,11-dihydro-6H-pyrido[2,3-b][1,4]benzodiazepin-6-one] | 17 | 
